Assay results: PubChem BioAssay (NCI)
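Method: 48-hour compound exposure of cells in 96-well plates, five concentrations, linear interpolation of endpoints. Here, GI50 denotes the concentration required for 50% inhibition of growth. TGI marks complete inhibition of growth.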

What was measured:
Test in all cases: growth of human tumour cells (NCI), 48 h
[1] = tested on: EKVX NSCLC
[2] = tested on: UO-31 renal
[3] = tested on: SF-539 CNS
[4] = tested on: MCF7 breast
[5] = tested on: SK-OV-3 ovarian
[6] = tested on: SR leukemia
[7] = tested on: SNB-19 CNS
[8] = tested on: NCI-H460 lung
[9] = tested on: SF-295 CNS
[10] = tested on: UACC-62 melanoma
[11] = tested on: ACHN renal
[12] = tested on: HOP-92 NSCLC
[13] = tested on: DU-145 prostate
[14] = tested on: SNB-75 CNS
[15] = tested on: NCI-H522 lung
[16] = tested on: MDA-MB-435
[17] = tested on: U251 CNS
[18] = tested on: IGROV1 ovarian
[19] = tested on: PC-3 prostate
[20] = tested on: K-562 leukemia
[21] = tested on: HT29 colon
[22] = tested on: HS 578T breast
[23] = tested on: HOP-62 NSCLC
[24] = tested on: SN12C renal
[25] = tested on: OVCAR-8 ovarian
[26] = tested on: OVCAR-4 ovarian
[27] = tested on: OVCAR-5 ovarian
[28] = tested on: HL-60(TB) leukemia
[29] = tested on: 786-0 renal
[30] = tested on: MOLT-4 leukemia
[31] = tested on: NCI/ADR-RES ovarian
[32] = tested on: RXF 393 renal
[33] = tested on: LOX IMVI melanoma
[34] = tested on: A549 NSCLC
[35] = tested on: CAKI-1 renal
[36] = tested on: HCT-15 colon
[37] = tested on: BT-549 breast
[38] = tested on: SK-MEL-5 melanoma
[39] = tested on: NCI-H23 lung
[40] = tested on: SK-MEL-28 melanoma
[41] = tested on: M14 melanoma
[42] = tested on: A498 renal
[43] = tested on: SF-268 CNS
[44] = tested on: SK-MEL-2 melanoma
[45] = tested on: RPMI-8226 leukemia
[46] = tested on: SW-620 colon
[47] = tested on: UACC-257 melanoma
[48] = tested on: NCI-H226 lung
[49] = tested on: HCT-116 colon
[50] = tested on: OVCAR-3 ovarian
[51] = tested on: COLO 205 colon
[52] = tested on: MDA-MB-231 breast

## Clc1ccc(-c2nc(-c3ccccc3)cn3ccnc23)cc1
[1]
  GI50: 10 µM
  TGI: 48.8 µM
[2]
  GI50: 20.2 µM
  TGI: > 100 µM
[3]
  GI50: 11.7 µM
  TGI: 31.8 µM
[4]
  GI50: 7.16 µM
  TGI: > 100 µM
[5]
  GI50: 32 µM
  TGI: > 100 µM
[6]
  GI50: 627 nM
  TGI: > 100 µM
[7]
  GI50: 25.6 µM
  TGI: > 100 µM
[8]
  GI50: 20.2 µM
  TGI: > 100 µM
[9]
  GI50: 3.1 µM
  TGI: 16.7 µM
[10]
  GI50: 17.7 µM
  TGI: 70 µM
[11]
  GI50: 11.4 µM
  TGI: 26.1 µM
[12]
  GI50: 11.1 µM
  TGI: 32.7 µM
[13]
  GI50: 11.9 µM
  TGI: 34.9 µM
[14]
  GI50: 13 µM
  TGI: 72 µM
[15]
  GI50: > 100 µM
  TGI: > 100 µM
[16]
  GI50: 1430 nM
  TGI: 7.52 µM
[17]
  GI50: 6.61 µM
  TGI: 19.9 µM
[18]
  GI50: 15.5 µM
  TGI: > 100 µM
[19]
  GI50: 14.2 µM
  TGI: 53.7 µM
[20]
  GI50: 2650 nM
  TGI: > 100 µM
[21]
  GI50: 7.45 µM
  TGI: 56.7 µM
[22]
  TGI: 17 µM
[23]
  GI50: 16.1 µM
  TGI: 52.5 µM
[24]
  GI50: 21.3 µM
  TGI: > 100 µM
[25]
  GI50: 20.6 µM
  TGI: 57.2 µM
[26]
  GI50: 14.6 µM
  TGI: 51.3 µM
[27]
  GI50: 15.7 µM
  TGI: 44.7 µM
[28]
  GI50: 5.05 µM
  TGI: > 100 µM
[29]
  GI50: 14 µM
  TGI: 37.3 µM
[30]
  GI50: 5.89 µM
  TGI: > 100 µM
[31]
  GI50: 6.53 µM
  TGI: 25.9 µM
[32]
  GI50: 2720 nM
  TGI: 28.6 µM
[33]
  GI50: 5.1 µM
  TGI: 19.5 µM
[34]
  GI50: 11 µM
  TGI: 29 µM
[35]
  GI50: 1490 nM
  TGI: 17.7 µM
[36]
  GI50: 1800 nM
  TGI: 18 µM
[37]
  GI50: 11.3 µM
  TGI: 34.3 µM
[38]
  GI50: 7.3 µM
  TGI: 27.2 µM
[39]
  GI50: 12.5 µM
  TGI: 36.4 µM
[40]
  GI50: 14.9 µM
  TGI: 58.3 µM
[41]
  GI50: 10.6 µM
  TGI: 27.4 µM
[42]
  GI50: 836 nM
  TGI: 16.1 µM
[43]
  GI50: 10.6 µM
  TGI: 33 µM
[44]
  GI50: 53.4 µM
  TGI: > 100 µM
[45]
  GI50: 3.44 µM
  TGI: 31.2 µM
[46]
  GI50: 4.75 µM
  TGI: 41.1 µM
[47]
  GI50: 20 µM
  TGI: 46.5 µM
[48]
  GI50: 74.7 µM
  TGI: > 100 µM
[49]
  GI50: 6.39 µM
  TGI: 21.5 µM
[50]
  GI50: 1820 nM
  TGI: 16.8 µM
[51]
  GI50: 18.6 µM
  TGI: > 100 µM
[52]
  GI50: 12.3 µM
  TGI: 55.5 µM
